Laboratory results as given in the supplement of paper PMC12137928.
Structures can show the parent of a compound that is named as a salt.

System: HCT116
Conditions: 72 h
How it was run: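 Each well of the 1536-well plates received 250 HCT116 cells, which attached over 5 h. Luminescence was measured with CellTiter-Glo, scaled with vehicle as 0% and positive control as -100%, and pattern-corrected. A four-parameter Hill fit yielded IC50 and maximal efficacy.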

**Q.** What does the source list for `CCCCC/C=C\C/C=C\C/C=C\CCCCC(=O)O` [Gamolenic acid]?
**A.** IC50 cell viability (ICRF193 0 nM): > 45.8 µM; IC50 cell viability (ICRF193 200 nM): > 45.8 µM

**Q.** Which IC50 cell viability (ICRF193 0 nM) does the source give for `Cc1ncc(CO)c(CO)c1O` [Pyridoxine] here?
**A.** Its IC50 cell viability is greater than 45.8 µM.

**Q.** What about the IC50 cell viability (ICRF193 200 nM) of the same compound?
**A.** Its IC50 cell viability is greater than 45.8 µM.

**Q.** With `Cc1cc(O)cc2c1O[C@](C)(CCC[C@H](C)CCC[C@H](C)CCCC(C)C)CC2` [D-delta-Tocopherol] as the compound, how does the IC50 cell viability (ICRF193 0 nM) read?
**A.** The IC50 cell viability was greater than 45.8 µM.

**Q.** And the IC50 cell viability (ICRF193 200 nM)?
**A.** Its IC50 cell viability is greater than 45.8 µM.

**Q.** How did the IC50 cell viability (ICRF193 0 nM) turn out when `COc1ccccc1Oc1c(NS(=O)(=O)c2ccc(C(C)(C)C)cc2)nc(-c2ncccn2)nc1OCCO` [Bosentan] was run?
**A.** The IC50 cell viability was greater than 45.8 µM.

**Q.** What about the IC50 cell viability (ICRF193 200 nM) of the same compound?
**A.** Its IC50 cell viability is greater than 45.8 µM.

**Q.** How did the IC50 cell viability (ICRF193 0 nM) turn out when `CC[C@H]1OC(=O)[C@H](C)[C@@H](O[C@H]2C[C@@](C)(OC)[C@@H](O)[C@H](C)O2)[C@H](C)[C@@H](O[C@@H]2O[C@H](C)C[C@H](N(C)C)[C@H]2O)[C@](C)(OC)C[C@@H](C)C(=O)[C@H](C)[C@@H](O)[C@]1(C)O` [Clarithromycin] was run?
**A.** The IC50 cell viability was greater than 45.8 µM.

**Q.** And the IC50 cell viability (ICRF193 200 nM)?
**A.** The IC50 cell viability was greater than 45.8 µM.

**Q.** For `CN1C(C(=O)Nc2ccccn2)=C(O)c2ccccc2S1(=O)=O` [Piroxicam], which IC50 cell viability (ICRF193 0 nM) is on record?
**A.** Its IC50 cell viability is greater than 45.8 µM.

**Q.** And the IC50 cell viability (ICRF193 200 nM)?
**A.** The IC50 cell viability was greater than 45.8 µM.

**Q.** Which results are given for `N[C@@H]1CN(c2c(F)cc3c(=O)c(C(=O)O)cn([C@@H]4C[C@@H]4F)c3c2Cl)CC12CC2` [Sitafloxacin hydrate]?
**A.** IC50 cell viability (ICRF193 0 nM): > 45.8 µM; IC50 cell viability (ICRF193 200 nM): > 45.8 µM

**Q.** `COc1ccc2c(O[C@@H]3C[C@H]4C(=O)N[C@]5(C(=O)NS(=O)(=O)C6CC6)C[C@H]5/C=C\CCCCN(C)C(=O)[C@@H]4C3)cc(-c3nc(C(C)C)cs3)nc2c1C` [Simeprevir] was tested. Which IC50 cell viability (ICRF193 0 nM) did it give?
**A.** Its IC50 cell viability is greater than 45.8 µM.

**Q.** And the IC50 cell viability (ICRF193 200 nM)?
**A.** Its IC50 cell viability is greater than 45.8 µM.

**Q.** How did the IC50 cell viability (ICRF193 0 nM) turn out when `CC(C)(C)NC[C@H](O)COc1nsnc1N1CCOCC1` [(S)-Timolol] was run?
**A.** The IC50 cell viability was greater than 45.8 µM.

**Q.** And the IC50 cell viability (ICRF193 200 nM)?
**A.** Its IC50 cell viability is greater than 45.8 µM.

**Q.** For `CCOC(=O)c1ccccc1C(=O)OCC` [Diethyl phthalate], which IC50 cell viability (ICRF193 0 nM) is on record?
**A.** The IC50 cell viability was greater than 45.8 µM.

**Q.** And the IC50 cell viability (ICRF193 200 nM)?
**A.** The IC50 cell viability was greater than 45.8 µM.

**Q.** What does the source list for `CN(C)CCN(Cc1ccccc1)c1ccccn1` [Tripelennamine citrate]?
**A.** IC50 cell viability (ICRF193 0 nM): > 45.8 µM; IC50 cell viability (ICRF193 200 nM): > 45.8 µM

**Q.** With `COC(=O)N[C@H](C(=O)N1CC2(CC2)C[C@H]1c1nc(-c2ccc3c(c2)C(F)(F)c2cc(-c4ccc5[nH]c([C@@H]6[C@H]7CC[C@H](C7)N6C(=O)[C@@H](NC(=O)OC)C(C)C)nc5c4)ccc2-3)c[nH]1)C(C)C` [Ledipasvir (GS 5885)] as the compound, how does the IC50 cell viability (ICRF193 0 nM) read?
**A.** The IC50 cell viability was greater than 45.8 µM.

**Q.** What about the IC50 cell viability (ICRF193 200 nM) of the same compound?
**A.** Its IC50 cell viability is greater than 45.8 µM.

**Q.** Which IC50 cell viability (ICRF193 0 nM) does the source give for `O=S(O)CNc1ccc(S(=O)(=O)c2ccc(NCS(=O)O)cc2)cc1` [Adesulfone sodium] here?
**A.** The IC50 cell viability was greater than 45.8 µM.

**Q.** And the IC50 cell viability (ICRF193 200 nM)?
**A.** The IC50 cell viability was greater than 45.8 µM.

**Q.** How did the IC50 cell viability (ICRF193 0 nM) turn out when `CCN(CC)Cc1nccn1-c1ccc([N+](=O)[O-])cc1C(=O)c1ccccc1Cl` [Nizofenone] was run?
**A.** Its IC50 cell viability is greater than 45.8 µM.

**Q.** What about the IC50 cell viability (ICRF193 200 nM) of the same compound?
**A.** The IC50 cell viability was greater than 45.8 µM.

**Q.** How did the IC50 cell viability (ICRF193 0 nM) turn out when `CCCCC(CC)COC(=O)c1ccccc1O` (centres undefined) [2-Ethylhexyl salicylate] was run?
**A.** Its IC50 cell viability is greater than 45.8 µM.

**Q.** And the IC50 cell viability (ICRF193 200 nM)?
**A.** The IC50 cell viability was greater than 45.8 µM.

**Q.** What does the source list for `Cc1ccccc1C(=O)N1CC/C(=N\OS(=O)(=O)O)c2ccc(Cl)cc21` [Alilusem potassium]?
**A.** IC50 cell viability (ICRF193 0 nM): > 45.8 µM; IC50 cell viability (ICRF193 200 nM): > 45.8 µM

**Q.** With `Cc1cccc(Nc2ccncc2S(=O)(=O)NC(=O)NC(C)C)c1` [Torsemide] as the compound, how does the IC50 cell viability (ICRF193 0 nM) read?
**A.** The IC50 cell viability was greater than 45.8 µM.

**Q.** And the IC50 cell viability (ICRF193 200 nM)?
**A.** Its IC50 cell viability is greater than 45.8 µM.

**Q.** With `CC12CCC(CC1)C(C)(C)O2` [1,8-Cineol] as the compound, how does the IC50 cell viability (ICRF193 0 nM) read?
**A.** Its IC50 cell viability is greater than 45.8 µM.

**Q.** What about the IC50 cell viability (ICRF193 200 nM) of the same compound?
**A.** The IC50 cell viability was greater than 45.8 µM.

**Q.** How did the IC50 cell viability (ICRF193 0 nM) turn out when `C[C@@H]1O[C@@H](OC[C@H]2O[C@@H](Oc3c(-c4ccc(O)c(O)c4)oc4cc(O)cc(O)c4c3=O)[C@H](O)[C@@H](O)[C@@H]2O)[C@H](O)[C@H](O)[C@H]1O` [Rutin trihydrate] was run?
**A.** The IC50 cell viability was greater than 45.8 µM.

**Q.** And the IC50 cell viability (ICRF193 200 nM)?
**A.** The IC50 cell viability was greater than 45.8 µM.

**Q.** Which results are given for `COc1cc2[nH]c(C)c(CCN3CCN(c4ccccc4)CC3)c2cc1OC` [Oxypertine hydrochloride]?
**A.** IC50 cell viability (ICRF193 0 nM): > 45.8 µM; IC50 cell viability (ICRF193 200 nM): > 45.8 µM

**Q.** Which results are given for `CN1CC2c3ccccc3Oc3ccc(Cl)cc3C2C1` (centres undefined) [Asenapine]?
**A.** IC50 cell viability (ICRF193 0 nM): > 45.8 µM; IC50 cell viability (ICRF193 200 nM): > 45.8 µM

**Q.** Which results are given for `Cc1cccc(C)c1NC(=O)C1CCCCN1C` (centres undefined) [MEPIVACAINE HYDROCHLORIDE]?
**A.** IC50 cell viability (ICRF193 0 nM): > 45.8 µM; IC50 cell viability (ICRF193 200 nM): > 45.8 µM

**Q.** How did the IC50 cell viability (ICRF193 0 nM) turn out when `C=C(C)CNc1ccc(C(C)C(=O)O)cc1` (racemic) [rac Alminoprofen] was run?
**A.** Its IC50 cell viability is greater than 45.8 µM.

**Q.** And the IC50 cell viability (ICRF193 200 nM)?
**A.** Its IC50 cell viability is greater than 45.8 µM.

**Q.** What does the source list for `CC(C)Cn1cnc2c(N)nc3ccccc3c21` [Imiquimod]?
**A.** IC50 cell viability (ICRF193 0 nM): > 45.8 µM; IC50 cell viability (ICRF193 200 nM): > 45.8 µM

**Q.** How did the IC50 cell viability (ICRF193 0 nM) turn out when `CCCCCCCC/C=C/CCCCCCCC(=O)O` [Elaidic Acid] was run?
**A.** Its IC50 cell viability is greater than 45.8 µM.

**Q.** What about the IC50 cell viability (ICRF193 200 nM) of the same compound?
**A.** The IC50 cell viability was greater than 45.8 µM.

**Q.** `N[C@H](C(=O)O)[C@H](O)c1ccc(O)c(O)c1` [Droxidopa] was tested. Which IC50 cell viability (ICRF193 0 nM) did it give?
**A.** The IC50 cell viability was greater than 45.8 µM.

**Q.** What about the IC50 cell viability (ICRF193 200 nM) of the same compound?
**A.** The IC50 cell viability was greater than 45.8 µM.

**Q.** For `CO[C@H]1/C=C/O[C@@]2(C)Oc3c(C)c(O)c4c(c3C2=O)C2=NC3(CCN(CC(C)C)CC3)NC2=C(NC(=O)/C(C)=C\C=C\[C@H](C)[C@H](O)[C@@H](C)[C@@H](O)[C@@H](C)[C@H](OC(C)=O)[C@@H]1C)C4=O` [Rifabutin], which IC50 cell viability (ICRF193 0 nM) is on record?
**A.** The IC50 cell viability was greater than 45.8 µM.

**Q.** What about the IC50 cell viability (ICRF193 200 nM) of the same compound?
**A.** The IC50 cell viability was greater than 45.8 µM.

**Q.** For `NNC(=O)c1ccncc1` [Isoniazid], which IC50 cell viability (ICRF193 0 nM) is on record?
**A.** Its IC50 cell viability is greater than 45.8 µM.

**Q.** What about the IC50 cell viability (ICRF193 200 nM) of the same compound?
**A.** The IC50 cell viability was greater than 45.8 µM.

**Q.** What does the source list for `CN1CCN(C(c2ccccc2)c2ccccc2)CC1` [Cyclizine hydrochloride]?
**A.** IC50 cell viability (ICRF193 0 nM): > 45.8 µM; IC50 cell viability (ICRF193 200 nM): > 45.8 µM

**Q.** What does the source list for `FC(F)OC(Cl)C(F)(F)F` (centres undefined) [Isoflurane]?
**A.** IC50 cell viability (ICRF193 0 nM): > 45.8 µM; IC50 cell viability (ICRF193 200 nM): > 45.8 µM

**Q.** For `CCN(CC)C(=O)N1CCN(C)CC1` [DIETHYLCARBAMAZINE CITRATE], which IC50 cell viability (ICRF193 0 nM) is on record?
**A.** Its IC50 cell viability is greater than 45.8 µM.

**Q.** And the IC50 cell viability (ICRF193 200 nM)?
**A.** Its IC50 cell viability is greater than 45.8 µM.

**Q.** How did the IC50 cell viability (ICRF193 0 nM) turn out when `CS(=O)(=O)c1ccc(C2=C(c3ccccc3)C(=O)OC2)cc1` [Rofecoxib] was run?
**A.** Its IC50 cell viability is greater than 45.8 µM.

**Q.** And the IC50 cell viability (ICRF193 200 nM)?
**A.** The IC50 cell viability was greater than 45.8 µM.
